Measurements as given in patent publication US20210079443A1, “INDICATOR BAC[…] SELECTING AND […] EFFICACY OF THERAPEUTICS AND METHODS FOR USING SAME” (priority 2018, published 2021).

What was measured:
Assay in all cases: Phage-Mediated Detection of Staphylococcus aureus
Type in all cases: cell-based
[1] = test system: Staphylococcus aureus strain AR0487 (MSSA, CDC Panel)
Experimental: (§1) Samples of methicillin-resistant S. aureus (MRSA) were primed by adding 135 μl of samples containing S. aureus to rich media. The rich media included sub-inhibitory antibiotic (cefoxitin) to allow for specific enrichment and induction of MRSA. Samples were incubated in rich media for 1-2 hours. Following the priming of the samples, additional cefoxitin was added to the media and samples were incubated for an additional 2 hours. Staphylococcus aureus-specific bacteriophage NanoLuc Indicator phage was added to the samples and incubated for 2 hours. Lysis buffer and NANO-GLO® reagent were added. Following 5 minutes of incubation, measurements of bioluminescence were taken using a GLOMAX® 96 instrument. A signal/background ratio ≥750 RLU indicated positive detection of S. aureus. A signal/background ratio of <750 RLU indicated the sample was negative for S. aureus.

[2] = test system: Staphylococcus aureus strain BAA-42 (MRSA, ATCC)
Experimental: as §1

[3] = test system: Staphylococcus aureus strain BAA-1720 (MRSA, ATCC); details: detected CFU 16, cefoxitin 1.8 ug/mL
Experimental: as §1

[4] = test system: Staphylococcus aureus strain BAA-1721 (MSSA, ATCC)
Experimental: as §1

[5] = test system: Staphylococcus aureus strain AR0475 (MRSA, CDC Panel)
Experimental: as §1

[6] = test system: Staphylococcus aureus strain AR0472 (MRSA, CDC Panel)
Experimental: as §1

[7] = test system: Staphylococcus aureus strain AR0489 (MSSA, CDC Panel)
Experimental: as §1

[8] = test system: Staphylococcus aureus strain AR0490 (MSSA, CDC Panel)
Experimental: as §1

[9] = test system: Staphylococcus aureus strain AR0474 (MRSA, CDC Panel)
Experimental: as §1

[10] = test system: Staphylococcus aureus strain AR0467 (MRSA, CDC Panel)
Experimental: as §1

[11] = test system: Staphylococcus aureus strain AR0491 (MSSA, CDC Panel)
Experimental: as §1

[12] = test system: Staphylococcus aureus strain AR0482 (MRSA, CDC Panel)
Experimental: as §1

[13] = test system: Staphylococcus aureus strain AR0478 (MRSA, CDC Panel)
Experimental: as §1

[14] = test system: Staphylococcus aureus strain AR0488 (MSSA, CDC Panel)
Experimental: as §1

[15] = test system: Staphylococcus aureus strain AR0484 (MSSA, CDC Panel)
Experimental: as §1

[16] = test system: Staphylococcus aureus strain AR0468 (MRSA, CDC Panel)
Experimental: as §1

[17] = test system: Staphylococcus aureus strain AR0465 (MRSA, CDC Panel)
Experimental: as §1

[18] = test system: Staphylococcus aureus strain BAA-2313 (MRSA, ATCC)
Experimental: as §1

[19] = test system: Staphylococcus aureus strain BAA-2094 (MRSA, ATCC)
Experimental: as §1

[20] = test system: Staphylococcus aureus strain AR0473 (MRSA, CDC Panel)
Experimental: as §1

[21] = test system: Staphylococcus aureus strain AR0461 (MRSA, CDC Panel)
Experimental: as §1

CO[C@@]1(NC(=O)Cc2cccs2)C(=O)N2C(C(=O)O)=C(COC(N)=O)CS[C@@H]21 [Cefoxitin, cefoxitin]
Cefoxitin Concentration 1 ug/mL (indicator phage luminescence signal) ([1]; detected CFU 221, cefoxitin 1 ug/mL): 10420 RLU
Cefoxitin Concentration 2 ug/mL (indicator phage luminescence signal) ([1]; detected CFU 221, cefoxitin 2 ug/mL): 167 RLU
Cefoxitin Concentration 4 ug/mL (indicator phage luminescence signal) ([1]; detected CFU 221, cefoxitin 4 ug/mL): 188 RLU
Cefoxitin Concentration 1 ug/mL (indicator phage luminescence signal) ([2]; detected CFU 165, cefoxitin 1 ug/mL): 8634 RLU
Cefoxitin Concentration 2 ug/mL (indicator phage luminescence signal) ([2]; detected CFU 165, cefoxitin 2 ug/mL): 775 RLU
Cefoxitin Concentration 4 ug/mL (indicator phage luminescence signal) ([2]; detected CFU 165, cefoxitin 4 ug/mL): 240 RLU
Cefoxitin Concentration 1.8 ug/mL (indicator phage luminescence signal) [3]: 4034 RLU
Cefoxitin Concentration 1 ug/mL (indicator phage luminescence signal) ([4]; detected CFU 197, cefoxitin 1 ug/mL): 21900 RLU
Cefoxitin Concentration 2 ug/mL (indicator phage luminescence signal) ([4]; detected CFU 197, cefoxitin 2 ug/mL): 172 RLU
Cefoxitin Concentration 4 ug/mL (indicator phage luminescence signal) ([4]; detected CFU 197, cefoxitin 4 ug/mL): 164 RLU
Cefoxitin Concentration 1 ug/mL (indicator phage luminescence signal) ([5]; detected CFU 134, cefoxitin 1 ug/mL): 52460 RLU
Cefoxitin Concentration 2 ug/mL (indicator phage luminescence signal) ([5]; detected CFU 134, cefoxitin 2 ug/mL): 57660 RLU
Cefoxitin Concentration 4 ug/mL (indicator phage luminescence signal) ([5]; detected CFU 134, cefoxitin 4 ug/mL): 34040 RLU
Cefoxitin Concentration 1.8 ug/mL (indicator phage luminescence signal) ([6]; detected CFU 14, cefoxitin 1.8 ug/mL): 2694 RLU
Cefoxitin Concentration 1 ug/mL (indicator phage luminescence signal) ([6]; detected CFU 142, cefoxitin 1 ug/mL): 72720 RLU
Cefoxitin Concentration 2 ug/mL (indicator phage luminescence signal) ([6]; detected CFU 142, cefoxitin 2 ug/mL): 19210 RLU
Cefoxitin Concentration 4 ug/mL (indicator phage luminescence signal) ([6]; detected CFU 142, cefoxitin 4 ug/mL): 240 RLU
Cefoxitin Concentration 1 ug/mL (indicator phage luminescence signal) ([7]; detected CFU 144, cefoxitin 1 ug/mL): 30590 RLU
Cefoxitin Concentration 2 ug/mL (indicator phage luminescence signal) ([7]; detected CFU 144, cefoxitin 2 ug/mL): 188 RLU
Cefoxitin Concentration 4 ug/mL (indicator phage luminescence signal) ([7]; detected CFU 144, cefoxitin 4 ug/mL): 207 RLU
Cefoxitin Concentration 1 ug/mL (indicator phage luminescence signal) ([8]; detected CFU 940, cefoxitin 1 ug/mL): 40620 RLU
Cefoxitin Concentration 2 ug/mL (indicator phage luminescence signal) ([8]; detected CFU 940, cefoxitin 2 ug/mL): 254 RLU
Cefoxitin Concentration 4 ug/mL (indicator phage luminescence signal) ([8]; detected CFU 940, cefoxitin 4 ug/mL): 582 RLU
Cefoxitin Concentration 1 ug/mL (indicator phage luminescence signal) ([9]; detected CFU 477, cefoxitin 1 ug/mL): 3449 RLU
Cefoxitin Concentration 2 ug/mL (indicator phage luminescence signal) ([9]; detected CFU 477, cefoxitin 2 ug/mL): 2235 RLU
Cefoxitin Concentration 4 ug/mL (indicator phage luminescence signal) ([9]; detected CFU 477, cefoxitin 4 ug/mL): 1684 RLU
Cefoxitin Concentration 1 ug/mL (indicator phage luminescence signal) ([10]; detected CFU 171, cefoxitin 1 ug/mL): 9908 RLU
Cefoxitin Concentration 2 ug/mL (indicator phage luminescence signal) ([10]; detected CFU 171, cefoxitin 2 ug/mL): 6497 RLU
Cefoxitin Concentration 4 ug/mL (indicator phage luminescence signal) ([10]; detected CFU 171, cefoxitin 4 ug/mL): 4401 RLU
Cefoxitin Concentration 1 ug/mL (indicator phage luminescence signal) ([11]; detected CFU 217, cefoxitin 1 ug/mL): 40760 RLU
Cefoxitin Concentration 2 ug/mL (indicator phage luminescence signal) ([11]; detected CFU 217, cefoxitin 2 ug/mL): 215 RLU
Cefoxitin Concentration 4 ug/mL (indicator phage luminescence signal) ([11]; detected CFU 217, cefoxitin 4 ug/mL): 266 RLU
Cefoxitin Concentration 1 ug/mL (indicator phage luminescence signal) ([12]; detected CFU 75, cefoxitin 1 ug/mL): 6741 RLU
Cefoxitin Concentration 2 ug/mL (indicator phage luminescence signal) ([12]; detected CFU 75, cefoxitin 2 ug/mL): 2477 RLU
Cefoxitin Concentration 4 ug/mL (indicator phage luminescence signal) ([12]; detected CFU 75, cefoxitin 4 ug/mL): 204 RLU
Cefoxitin Concentration 1 ug/mL (indicator phage luminescence signal) ([13]; detected CFU 183, cefoxitin 1 ug/mL): 279700 RLU
Cefoxitin Concentration 2 ug/mL (indicator phage luminescence signal) ([13]; detected CFU 183, cefoxitin 2 ug/mL): 73090 RLU
Cefoxitin Concentration 4 ug/mL (indicator phage luminescence signal) ([13]; detected CFU 183, cefoxitin 4 ug/mL): 1519 RLU
Cefoxitin Concentration 1 ug/mL (indicator phage luminescence signal) ([14]; detected CFU 151, cefoxitin 1 ug/mL): 15430 RLU
Cefoxitin Concentration 2 ug/mL (indicator phage luminescence signal) ([14]; detected CFU 151, cefoxitin 2 ug/mL): 207 RLU
Cefoxitin Concentration 4 ug/mL (indicator phage luminescence signal) ([14]; detected CFU 151, cefoxitin 4 ug/mL): 197 RLU
Cefoxitin Concentration 1 ug/mL (indicator phage luminescence signal) ([15]; detected CFU 525, cefoxitin 1 ug/mL): 8875 RLU
Cefoxitin Concentration 2 ug/mL (indicator phage luminescence signal) ([15]; detected CFU 525, cefoxitin 2 ug/mL): 172 RLU
Cefoxitin Concentration 4 ug/mL (indicator phage luminescence signal) ([15]; detected CFU 525, cefoxitin 4 ug/mL): 182 RLU
Cefoxitin Concentration 1 ug/mL (indicator phage luminescence signal) ([16]; detected CFU 169, cefoxitin 1 ug/mL): 10330 RLU
Cefoxitin Concentration 2 ug/mL (indicator phage luminescence signal) ([16]; detected CFU 169, cefoxitin 2 ug/mL): 10070 RLU
Cefoxitin Concentration 4 ug/mL (indicator phage luminescence signal) ([16]; detected CFU 169, cefoxitin 4 ug/mL): 5002 RLU
Cefoxitin Concentration 1 ug/mL (indicator phage luminescence signal) ([17]; detected CFU 101, cefoxitin 1 ug/mL): 8263 RLU
Cefoxitin Concentration 2 ug/mL (indicator phage luminescence signal) ([17]; detected CFU 101, cefoxitin 2 ug/mL): 4086 RLU
Cefoxitin Concentration 4 ug/mL (indicator phage luminescence signal) ([17]; detected CFU 101, cefoxitin 4 ug/mL): 3006 RLU
Cefoxitin Concentration 1 ug/mL (indicator phage luminescence signal) ([18]; detected CFU 192, cefoxitin 1 ug/mL): 363300 RLU
Cefoxitin Concentration 2 ug/mL (indicator phage luminescence signal) ([18]; detected CFU 192, cefoxitin 2 ug/mL): 52440 RLU
Cefoxitin Concentration 4 ug/mL (indicator phage luminescence signal) ([18]; detected CFU 192, cefoxitin 4 ug/mL): 2409 RLU
Cefoxitin Concentration 1 ug/mL (indicator phage luminescence signal) ([19]; detected CFU 147, cefoxitin 1 ug/mL): 252900 RLU
Cefoxitin Concentration 2 ug/mL (indicator phage luminescence signal) ([19]; detected CFU 147, cefoxitin 2 ug/mL): 96700 RLU
Cefoxitin Concentration 4 ug/mL (indicator phage luminescence signal) ([19]; detected CFU 147, cefoxitin 4 ug/mL): 1971 RLU
Cefoxitin Concentration 1 ug/mL (indicator phage luminescence signal) ([20]; detected CFU 219, cefoxitin 1 ug/mL): 60000 RLU
Cefoxitin Concentration 2 ug/mL (indicator phage luminescence signal) ([20]; detected CFU 219, cefoxitin 2 ug/mL): 17500 RLU
Cefoxitin Concentration 4 ug/mL (indicator phage luminescence signal) ([20]; detected CFU 219, cefoxitin 4 ug/mL): 338 RLU
Cefoxitin Concentration 1 ug/mL (indicator phage luminescence signal) ([21]; detected CFU 25, cefoxitin 1 ug/mL): 3460 RLU
Cefoxitin Concentration 2 ug/mL (indicator phage luminescence signal) ([21]; detected CFU 25, cefoxitin 2 ug/mL): 1846 RLU
Cefoxitin Concentration 4 ug/mL (indicator phage luminescence signal) ([21]; detected CFU 25, cefoxitin 4 ug/mL): 910 RLU
